Structures are written as SMILES. Values after ≈ are worked out from the molar mass of the structure shown. A value given as a limit tells only on which side of the number the result lay.

Holding throughout (assay type): cell-based
In experiment [1] the test system is Staphylococcus aureus ATCC 106414 (VISA). In words: MIC determination, microdilution method (CLSI M07-A8). Particulars: 5 x 10^5 CFU/mL, 18 hours incubation. In a few lines: (§1)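 Broth microdilution per CLSI M07-A8 in Mueller Hinton broth, with 10% sheep blood added for H. influenzae; final inoculum 5 x 10^5 CFU/mL and two-fold compound dilutions over 0.25-64 mg/L. Incubation was at 37°C, under 5% CO2 for H. influenzae only. MIC was the lowest concentration giving complete visual growth inhibition at 18 h.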

The subject of experiment [2] is Staphylococcus aureus ATCC 33592 (MRSA). The experiment is described as above. Particulars: 5 x 10^5 CFU/mL, 18 hours incubation. The method in brief: as §1
Experiment [3] relates to Staphylococcus aureus ATCC 6538. Described as above. The note with it: ATCC6538, 5 x 10^5 CFU/mL, 18 hours incubation. The method in brief: as §1
The subject of experiment [4] is Staphylococcus aureus ATCC 9144. The description is as above. Particulars: ATCC9144, 5 x 10^5 CFU/mL, 18 hours incubation. In a few lines: as §1
Experiment [5] relates to Staphylococcus aureus CIP 103428. The experiment is described as above. The note with it: CIP103428, 5 x 10^5 CFU/mL, 18 hours incubation. In a few lines:
as §1

In experiment [6] the test system is Staphylococcus aureus CIP 65.25 (MRSA). Described as above. The note with it: 5 x 10^5 CFU/mL, 18 hours incubation. The method in brief: as §1
Experiment [7] concerns Staphylococcus aureus CIP 65.6. The description is as above. The note with it: CIP65, 5 x 10^5 CFU/mL, 18 hours incubation. In a few lines: as §1
For experiment [8], the system named is Staphylococcus epidermidis CIP 103627. The description is as above. Particulars: CIP103627, 5 x 10^5 CFU/mL, 18 hours incubation. In a few lines:
as §1

The subject of experiment [9] is Staphylococcus epidermidis CIP 81.55. Described as above. Particulars: CIP81, 5 x 10^5 CFU/mL, 18 hours incubation. The method in brief: as §1
In experiment [10] the test system is Staphylococcus aureus MRSA 252 CNR HT 2006 0436. Nature of the experiment: Determination of the minimum bactericidal concentration (MBC), macro-method. The note with it: 18 hours incubation, initial bacterial load 9500000. On the procedure:
(§2) The MBC against two different strains of Staphylococcus aureus, one susceptible to methicillin (MSSA 476 CNR HT 2006 0437) and one resistant to methicillin (MRSA 252 CNR HT 2006 0436) obtained from Centre National de Reference des Staphylocoques (Lyon, France) were determined using a macro-method. Sterile tubes were filled with a primary bacterial inoculum prepared in Mueller Hinton broth as above (10^6 CFU/ml of final inoculum) and pyrrolic compounds were added at twofold serial concentrations (0.5-128 mg/L of final concentrations for 3h and 3i and 0.0625-128mg/L of final concentration for 3n). After 18 hours incubation of cultures, ten-fold serial dilutions of the cultures with no visible bacterial growth and of the first tube showing visible bacterial growth were prepared. Then 100µl of each dilution were inoculated to Mueller Hinton agar media for 24-48 hours. CFU counts were then determined and the MBC corresponded to the minimal pyrrolic compound concentration for which 99.9% of more bacterial cells were killed after 18 hours of incubation.
(§3) However, this reduction was only 1-2 log CFU/ml, and thus MBC could not be determined (tables VI and VII). Table VI: MBC against Staphylococcus aureus MRSA 252 CNR HT 2006 0436

Experiment [11] has as its system Staphylococcus aureus MSSA 476 CNR HT 2006 0437. Described as above. Particulars: 18 hours incubation, initial bacterial load 7,70E+05. On the procedure: as §2, §3

Consider `CC(=O)c1c(C)[nH]c(C(c2ccc(Cl)cc2)c2[nH]c(C)c(C(C)=O)c2C)c1C` [3c], for which the minimum inhibitory concentration (MIC) was 2 mg/L (≈ 5.04 µM) in [1]; 4 mg/L (≈ 10.1 µM) in experiment [2]; 2 mg/L (≈ 5.04 µM) in experiment [3]; 4 mg/L (≈ 10.1 µM) in experiment [4]; 8 mg/L (≈ 20.2 µM) in experiment [5]; 2 mg/L (≈ 5.04 µM) in [6]. Besides, the MIC in experiment [7] is 4 mg/L (≈ 10.1 µM); in [8], greater than 128 mg/L; in experiment [9] it was greater than 128 mg/L.
On to `CC(=O)c1c(C)[nH]c(C(c2cc3ccccc3o2)c2[nH]c(C)c(C(C)=O)c2C)c1C` [3e], for which the MIC in experiment [1] was 4 mg/L (≈ 9.94 µM); in experiment [2], 4 mg/L (≈ 9.94 µM); in [3] it was 4 mg/L (≈ 9.94 µM); in [4], 4 mg/L (≈ 9.94 µM); in experiment [5], 4 mg/L (≈ 9.94 µM); in [6] it was 2 mg/L (≈ 4.97 µM). Further, the minimum inhibitory concentration (MIC) in [7] is 4 mg/L (≈ 9.94 µM); in experiment [8] it was greater than 128 mg/L; in [9], greater than 128 mg/L.
For `CC(=O)c1c(C)[nH]c(C(c2cc3ccccc3s2)c2[nH]c(C)c(C(C)=O)c2C)c1C` [3f], the minimal inhibitory concentration (MIC) was 2 mg/L (≈ 4.78 µM) in experiment [1]; 8 mg/L (≈ 19.1 µM) in experiment [2]; 2 mg/L (≈ 4.78 µM) in experiment [3]; 2 mg/L (≈ 4.78 µM) in experiment [4]; 2 mg/L (≈ 4.78 µM) in experiment [5]; 2 mg/L (≈ 4.78 µM) in experiment [6]. The results for the MIC in experiment [7], in experiment [8] and in experiment [9] were 2 mg/L (≈ 4.78 µM), greater than 128 mg/L and greater than 128 mg/L, respectively.
Turning to `CC(=O)c1c(C)[nH]c(C(c2[nH]c(C)c(C(C)=O)c2C)c2cccc3ccccc23)c1C` [3h], the MIC is 1 mg/L (≈ 2.42 µM) in [1]; 1 mg/L (≈ 2.42 µM) in experiment [2]; 1 mg/L (≈ 2.42 µM) in experiment [3]; 8 mg/L (≈ 19.4 µM) in experiment [4]; 1 mg/L (≈ 2.42 µM) in [5]; 1 mg/L (≈ 2.42 µM) in experiment [6]. The MIC was 1 mg/L (≈ 2.42 µM) in [7], greater than 128 mg/L in [8] and greater than 128 mg/L in [9]. The “CFU counts (bacterial load)” value in experiment [10] (concentration 0,5 mg/L) is 2,10E+08 CFU/ml; in experiment [10] (concentration 1 mg/L) it was 7,50E+07 CFU/ml; in experiment [10] (concentration 2 mg/L), 5,60E+05 CFU/ml; in experiment [10] (concentration 4 mg/L), 5,50E+05 CFU/ml; in experiment [10] (concentration 8 mg/L) it was 2,40E+05 CFU/ml; in experiment [10] (concentration 16 mg/L), 3,20E+05 CFU/ml. Further, the “CFU counts (bacterial load)” value in experiment [10] (concentration 32 mg/L) is 4,20E+05 CFU/ml; in [10] (concentration 64 mg/L) it was 5,59E+05 CFU/ml; in experiment [10] (concentration 128 mg/L) it was 6,28E+05 CFU/ml; in experiment [11] (concentration 2 mg/L), 1,63E+08 CFU/ml; in experiment [11] (concentration 4 mg/L) it was 3,20E+05 CFU/ml; in experiment [11] (concentration 8 mg/L), 3,34E+05 CFU/ml. The “CFU counts (bacterial load)” value in experiment [11] (concentration 16 mg/L) is reported as 3,20E+05 CFU/ml; in [11] (concentration 32 mg/L), 3,70E+05 CFU/ml; in experiment [11] (concentration 64 mg/L), 3,90E+05 CFU/ml; in experiment [11] (concentration 128 mg/L) it was 4,30E+05 CFU/ml.
As to `CC(=O)c1c(C)[nH]c(C(c2[nH]c(C)c(C(C)=O)c2C)c2csc3ccccc23)c1C` [3i], the MIC in [1] is 0.5 mg/L (≈ 1.19 µM); in [2], 0.5 mg/L (≈ 1.19 µM); in experiment [3], 0.5 mg/L (≈ 1.19 µM); in experiment [4] it was 1 mg/L (≈ 2.39 µM); in experiment [5], 0.5 mg/L (≈ 1.19 µM); in experiment [6] it was 1 mg/L (≈ 2.39 µM). The MIC in [7] is 0.5 mg/L (≈ 1.19 µM); in experiment [8] it was greater than 128 mg/L; in experiment [9], greater than 128 mg/L. The “CFU counts (bacterial load)” value in experiment [10] (concentration 0,5 mg/L) is given as 4,70E+07 CFU/ml; in experiment [10] (concentration 1 mg/L) it was 5,20E+05 CFU/ml; in [10] (concentration 2 mg/L), 2,40E+05 CFU/ml; in experiment [10] (concentration 4 mg/L), 5,60E+05 CFU/ml; in experiment [10] (concentration 8 mg/L), 2,80E+05 CFU/ml; in experiment [10] (concentration 16 mg/L), 2,80E+05 CFU/ml. Also, the “CFU counts (bacterial load)” value in experiment [10] (concentration 32 mg/L) is listed as 5,00E+05 CFU/ml; in experiment [10] (concentration 64 mg/L), 4,80E+05 CFU/ml; in experiment [10] (concentration 128 mg/L), 1,00E+06 CFU/ml; in experiment [11] (concentration 0,5 mg/L) it was 1,46E+08 CFU/ml; in experiment [11] (concentration 1 mg/L), 6,00E+07 CFU/ml; in experiment [11] (concentration 2 mg/L), 3,55E+06 CFU/ml. The “CFU counts (bacterial load)” value in experiment [11] (concentration 4 mg/L) was 2,72E+05 CFU/ml; in experiment [11] (concentration 8 mg/L), 3,01E+05 CFU/ml; in experiment [11] (concentration 16 mg/L), 3,51E+05 CFU/ml; in experiment [11] (concentration 32 mg/L), 3,41E+05 CFU/ml; in [11] (concentration 64 mg/L), 3,21 E+05 CFU/ml; in experiment [11] (concentration 128 mg/L), 1,47E+06 CFU/ml.
Regarding `CC(=O)c1c(C)[nH]c(C(c2[nH]c(C)c(C(C)=O)c2C)c2csc3ccc(Br)cc23)c1C` [3n], the “CFU counts (bacterial load)” value in experiment [10] (concentration 0,5 mg/L) is recorded as 2,90E+05 CFU/ml; in [10] (concentration 0,25 mg/L), 2,80E+05 CFU/ml; in experiment [10] (concentration 1 mg/L) it was 3,00E+05 CFU/ml; in experiment [10] (concentration 2 mg/L), 4,20E+05 CFU/ml; in experiment [10] (concentration 4 mg/L) it was 4,20E+05 CFU/ml; in [10] (concentration 8 mg/L), 3,40E+05 CFU/ml. Moreover, the “CFU counts (bacterial load)” value is reported as 3,80E+05 CFU/ml in experiment [10] (concentration 16 mg/L); 1,00E+06 CFU/ml in experiment [10] (concentration 0,125 mg/L); 2,90E+07 CFU/ml in [10] (concentration 0,0625 mg/L); 2,78E+05 CFU/ml in experiment [11] (concentration 0,5 mg/L); 2,10E+06 CFU/ml in experiment [11] (concentration 0,25 mg/L); 1,76E+05 CFU/ml in experiment [11] (concentration 1 mg/L). The “CFU counts (bacterial load)” value is given as 2,70E+05 CFU/ml in experiment [11] (concentration 2 mg/L); 2,71E+05 CFU/ml in experiment [11] (concentration 4 mg/L); 4,41E+05 CFU/ml in [11] (concentration 16 mg/L); 4,47E+05 CFU/ml in [11] (concentration 32 mg/L); 4,50E+05 CFU/ml in experiment [11] (concentration 64 mg/L); 8,00E+07 CFU/ml in [11] (concentration 0,125 mg/L). The “CFU counts (bacterial load)” value is on record as 3,50E+05 CFU/ml in experiment [11] (concentration 128 mg/L) and 2,15E+08 CFU/ml in experiment [11] (concentration 0,0625 mg/L).

The values above are taken from patent EP2812315B1, “PYRROLIC DERIVATIVES, PROCESSES FOR PREPARING THE SAME AND THEIR USES AS A DRUG” (Universite Joseph Fourier, priority 2012, dated 2013).
